Experimental data reported in patent publication US11844785B2, “3-(phenyl)-N-(4-phenoxybenzyl)-1,2,4-oxadiazole-5-carboxamide compounds for the management of CFTR protein mediated diseases” (Emory University, priority 2015, dated 2023).
Read-outs that look alike come from different tables or passages of the source. Each block holds one compound with its values, some of them ahead of it.

Columns and labels:
[1] = target: mCFTR (Mus musculus, UniProt P26361); settings: cited from earlier work
[2] = target: hCFTR (Homo sapiens, UniProt P13569); settings: cited from earlier work
[3] = target: T1, F508del-hCFTR (Homo sapiens, UniProt P13569, DEL508-508); assay: Two-electrode voltage clamp (TEVC) on Xenopus oocytes expressing F508del-hCFTR; assay type: cell-based; settings: FIG. 2C
T1 construct: expressed in transfected cells; host or cells: Xenopus laevis oocytes injected with cRNA; mutant made by Quikchange site-directed mutagenesis of hCFTR/pGEMHE
Description: (§1) In order to identify compounds that potentiate F508del-hCFTR expressed in Xenopus oocytes, the effects of IOWH-032 on WT, R352A, and F508del-hCFTR were studied using the two-electrode voltage clamp (TEVC) technique. […] See Drumm et al. Chloride conductance expressed by delta F508 and other mutant CFTRs in Xenopus oocytes. Science, 1991, 254(5039): 1797-1799. Extracellular exposure to IOWH-032 potentiated WT and F508del-hCFTR channels.
(§2) Human CFTR cRNAs used in electrophysiology experiments were prepared from constructs encoding WT-hCFTR in the pGEMHE vector (hCFTR/pGEMHE kindly provided by Dr. D. Gadsby, Rockefeller University). The mutants of hCFTR used in this study were prepared using site-directed mutagenesis with the Quikchange protocol (Stratagene, La Jolla, CA) and mutant constructs were verified by sequencing across the entire open reading frame before use. […]
(§3) Standard two-electrode voltage clamp (TEVC) techniques were used to study the effects of chemicals with application of reagents to the extracellular bath. […] Electrode resistances measured 0.5-1.4 MΩ when filled with 3 M KCl and measured in standard ND96 bath solution that contained (in mM): 96 NaCl, 2 KCl, 1 MgCl2, and 5 HEPES (pH 7.5). […]

[4] = target: T2, human CFTR with a R352A mutation (Homo sapiens, UniProt P13569, R352A); assay: Two-electrode voltage clamp (TEVC) on Xenopus oocytes expressing R352A-hCFTR; assay type: cell-based; settings: FIG. 2B
T2 construct: expressed in transfected cells; host or cells: Xenopus laevis oocytes injected with cRNA; mutant made by Quikchange site-directed mutagenesis of hCFTR/pGEMHE
Description: as §1, §2, §3

[5] = target: T3, wildtype human CFTR (WT-hCFTR) (Homo sapiens, UniProt P13569); assay: Two-electrode voltage clamp (TEVC) on Xenopus oocytes expressing WT-hCFTR; assay type: cell-based; settings: for Kd: FIG. 2A
T3 construct: expressed in transfected cells; host or cells: Xenopus laevis oocytes injected with cRNA (hCFTR/pGEMHE, gift of D. Gadsby)
Description: as §1
Human CFTR cRNAs used in electrophysiology experiments were prepared from constructs encoding WT-hCFTR in the pGEMHE vector (hCFTR/pGEMHE kindly provided by Dr. D. Gadsby, Rockefeller University). The mutants of hCFTR used in this study were prepared using site-directed mutagenesis with the Quikchange protocol (Stratagene, La Jolla, CA) and mutant constructs were verified by sequencing across the entire open reading frame before use. Xenopus laevis oocytes were injected with 0.4-10 ng of CFTR cRNAs, and were incubated at 17° C. in modified Liebovitz's L-15 media with the addition of HEPES (pH 7.5), penicillin, and streptomycin. Recordings were made typically 24-96 hours after the injection of cRNAs.
Standard two-electrode voltage clamp (TEVC) techniques were used to study the effects of chemicals with application of reagents to the extracellular bath. Each oocyte was injected with CFTR cRNA along with cRNA encoding the beta2-adrenergic receptor (β2AR). Electrode resistances measured 0.5-1.4 MΩ when filled with 3 M KCl and measured in standard ND96 bath solution that contained (in mM): 96 NaCl, 2 KCl, 1 MgCl2, and 5 HEPES (pH 7.5). CFTR channels were activated by exposure to 10 μM isoproterenol (ISO) in ND 96 and alternatively assayed in the presence or absence of different concentrations of compounds in the bath solution, typically in the continuing presence of ISO. Currents were acquired with an Axoclamp 900A amplifier and Clampex 10.2 software, and current data were digitized at 2 kHz.

[6] = extracellular exposure, TEVC, Xenopus oocytes

T3 sequence (P13569 whole entry): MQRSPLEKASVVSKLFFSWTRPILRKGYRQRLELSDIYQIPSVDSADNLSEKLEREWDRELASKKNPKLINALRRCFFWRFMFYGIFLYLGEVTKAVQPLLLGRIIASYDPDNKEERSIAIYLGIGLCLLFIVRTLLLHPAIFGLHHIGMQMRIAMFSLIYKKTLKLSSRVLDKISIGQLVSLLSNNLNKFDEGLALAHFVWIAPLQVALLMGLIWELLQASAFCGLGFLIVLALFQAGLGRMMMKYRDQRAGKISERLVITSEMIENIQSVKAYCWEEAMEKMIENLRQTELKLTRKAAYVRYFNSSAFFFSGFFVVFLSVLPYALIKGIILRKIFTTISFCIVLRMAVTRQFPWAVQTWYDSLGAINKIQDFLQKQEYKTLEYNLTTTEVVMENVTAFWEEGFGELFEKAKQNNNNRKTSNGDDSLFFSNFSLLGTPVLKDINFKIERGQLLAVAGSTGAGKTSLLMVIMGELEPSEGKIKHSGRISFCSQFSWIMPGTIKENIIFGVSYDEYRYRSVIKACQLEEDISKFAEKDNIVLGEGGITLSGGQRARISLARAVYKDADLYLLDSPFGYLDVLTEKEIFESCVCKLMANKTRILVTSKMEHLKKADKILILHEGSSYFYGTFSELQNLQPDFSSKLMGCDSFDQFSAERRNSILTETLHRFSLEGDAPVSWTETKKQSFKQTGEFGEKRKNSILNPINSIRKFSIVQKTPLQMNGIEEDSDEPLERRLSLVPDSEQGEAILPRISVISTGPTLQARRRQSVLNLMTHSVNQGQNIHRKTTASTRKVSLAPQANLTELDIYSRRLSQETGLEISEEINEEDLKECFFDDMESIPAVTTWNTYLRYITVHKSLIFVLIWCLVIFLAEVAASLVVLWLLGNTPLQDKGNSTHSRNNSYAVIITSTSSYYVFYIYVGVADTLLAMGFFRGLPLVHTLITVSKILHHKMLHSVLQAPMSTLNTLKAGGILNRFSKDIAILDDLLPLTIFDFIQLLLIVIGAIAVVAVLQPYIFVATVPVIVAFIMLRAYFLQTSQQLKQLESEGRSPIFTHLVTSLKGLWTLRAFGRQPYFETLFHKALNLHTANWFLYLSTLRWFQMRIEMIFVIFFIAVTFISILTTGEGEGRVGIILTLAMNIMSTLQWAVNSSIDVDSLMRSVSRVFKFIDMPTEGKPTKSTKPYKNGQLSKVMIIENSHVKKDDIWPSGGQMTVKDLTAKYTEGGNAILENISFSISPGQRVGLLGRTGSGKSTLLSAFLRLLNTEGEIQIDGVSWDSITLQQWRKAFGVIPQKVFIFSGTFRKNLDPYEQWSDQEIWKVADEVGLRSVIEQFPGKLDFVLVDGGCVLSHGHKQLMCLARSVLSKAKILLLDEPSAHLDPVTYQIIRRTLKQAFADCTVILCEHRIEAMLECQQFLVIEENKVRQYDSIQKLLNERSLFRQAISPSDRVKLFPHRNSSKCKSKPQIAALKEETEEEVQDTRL
T2 sequence (P13569 whole entry R352A): as the sequence (P13569 whole entry) above, with R352A counted along it
Chain of hCFTR (P13569 whole entry): as the sequence (P13569 whole entry) above
T1 sequence (P13569 with tags, fused parts or gaps DEL508-508): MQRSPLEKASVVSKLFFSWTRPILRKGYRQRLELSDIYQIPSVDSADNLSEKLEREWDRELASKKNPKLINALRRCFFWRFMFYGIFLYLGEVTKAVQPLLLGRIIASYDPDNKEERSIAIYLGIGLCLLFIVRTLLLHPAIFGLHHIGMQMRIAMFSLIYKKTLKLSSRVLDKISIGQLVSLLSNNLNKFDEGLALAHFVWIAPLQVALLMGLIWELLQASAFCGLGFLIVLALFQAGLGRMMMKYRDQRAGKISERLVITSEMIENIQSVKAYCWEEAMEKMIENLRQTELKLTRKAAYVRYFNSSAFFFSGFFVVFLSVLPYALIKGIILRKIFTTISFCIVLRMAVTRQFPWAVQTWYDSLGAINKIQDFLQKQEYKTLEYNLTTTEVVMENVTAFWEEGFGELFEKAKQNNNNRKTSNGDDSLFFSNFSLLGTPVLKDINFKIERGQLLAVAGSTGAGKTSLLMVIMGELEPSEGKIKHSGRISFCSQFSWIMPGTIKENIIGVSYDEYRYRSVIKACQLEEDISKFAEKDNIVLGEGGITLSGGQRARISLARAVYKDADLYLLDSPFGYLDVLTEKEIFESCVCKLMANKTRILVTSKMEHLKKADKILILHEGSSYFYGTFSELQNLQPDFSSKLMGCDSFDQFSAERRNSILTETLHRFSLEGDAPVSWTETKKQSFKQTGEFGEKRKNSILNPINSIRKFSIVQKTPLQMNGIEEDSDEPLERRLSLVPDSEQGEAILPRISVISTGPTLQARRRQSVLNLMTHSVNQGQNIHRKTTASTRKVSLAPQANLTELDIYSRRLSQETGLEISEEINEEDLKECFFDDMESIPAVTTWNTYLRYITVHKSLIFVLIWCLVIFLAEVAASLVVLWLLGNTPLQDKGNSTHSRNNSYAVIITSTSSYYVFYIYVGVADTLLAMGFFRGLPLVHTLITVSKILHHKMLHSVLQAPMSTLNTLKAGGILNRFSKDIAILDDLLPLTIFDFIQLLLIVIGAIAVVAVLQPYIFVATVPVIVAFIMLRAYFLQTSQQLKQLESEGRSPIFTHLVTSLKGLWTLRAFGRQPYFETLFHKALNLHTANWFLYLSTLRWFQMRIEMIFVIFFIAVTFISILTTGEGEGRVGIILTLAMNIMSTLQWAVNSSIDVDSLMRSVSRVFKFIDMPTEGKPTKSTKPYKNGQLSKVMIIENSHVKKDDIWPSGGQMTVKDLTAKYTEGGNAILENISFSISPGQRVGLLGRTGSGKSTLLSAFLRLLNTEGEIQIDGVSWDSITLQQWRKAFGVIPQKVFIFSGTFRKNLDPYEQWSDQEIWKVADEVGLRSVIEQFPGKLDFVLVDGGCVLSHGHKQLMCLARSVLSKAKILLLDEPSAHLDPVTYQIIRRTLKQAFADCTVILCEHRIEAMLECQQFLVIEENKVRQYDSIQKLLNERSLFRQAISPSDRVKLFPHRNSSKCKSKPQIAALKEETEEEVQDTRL
Chain of mCFTR (P26361 whole entry): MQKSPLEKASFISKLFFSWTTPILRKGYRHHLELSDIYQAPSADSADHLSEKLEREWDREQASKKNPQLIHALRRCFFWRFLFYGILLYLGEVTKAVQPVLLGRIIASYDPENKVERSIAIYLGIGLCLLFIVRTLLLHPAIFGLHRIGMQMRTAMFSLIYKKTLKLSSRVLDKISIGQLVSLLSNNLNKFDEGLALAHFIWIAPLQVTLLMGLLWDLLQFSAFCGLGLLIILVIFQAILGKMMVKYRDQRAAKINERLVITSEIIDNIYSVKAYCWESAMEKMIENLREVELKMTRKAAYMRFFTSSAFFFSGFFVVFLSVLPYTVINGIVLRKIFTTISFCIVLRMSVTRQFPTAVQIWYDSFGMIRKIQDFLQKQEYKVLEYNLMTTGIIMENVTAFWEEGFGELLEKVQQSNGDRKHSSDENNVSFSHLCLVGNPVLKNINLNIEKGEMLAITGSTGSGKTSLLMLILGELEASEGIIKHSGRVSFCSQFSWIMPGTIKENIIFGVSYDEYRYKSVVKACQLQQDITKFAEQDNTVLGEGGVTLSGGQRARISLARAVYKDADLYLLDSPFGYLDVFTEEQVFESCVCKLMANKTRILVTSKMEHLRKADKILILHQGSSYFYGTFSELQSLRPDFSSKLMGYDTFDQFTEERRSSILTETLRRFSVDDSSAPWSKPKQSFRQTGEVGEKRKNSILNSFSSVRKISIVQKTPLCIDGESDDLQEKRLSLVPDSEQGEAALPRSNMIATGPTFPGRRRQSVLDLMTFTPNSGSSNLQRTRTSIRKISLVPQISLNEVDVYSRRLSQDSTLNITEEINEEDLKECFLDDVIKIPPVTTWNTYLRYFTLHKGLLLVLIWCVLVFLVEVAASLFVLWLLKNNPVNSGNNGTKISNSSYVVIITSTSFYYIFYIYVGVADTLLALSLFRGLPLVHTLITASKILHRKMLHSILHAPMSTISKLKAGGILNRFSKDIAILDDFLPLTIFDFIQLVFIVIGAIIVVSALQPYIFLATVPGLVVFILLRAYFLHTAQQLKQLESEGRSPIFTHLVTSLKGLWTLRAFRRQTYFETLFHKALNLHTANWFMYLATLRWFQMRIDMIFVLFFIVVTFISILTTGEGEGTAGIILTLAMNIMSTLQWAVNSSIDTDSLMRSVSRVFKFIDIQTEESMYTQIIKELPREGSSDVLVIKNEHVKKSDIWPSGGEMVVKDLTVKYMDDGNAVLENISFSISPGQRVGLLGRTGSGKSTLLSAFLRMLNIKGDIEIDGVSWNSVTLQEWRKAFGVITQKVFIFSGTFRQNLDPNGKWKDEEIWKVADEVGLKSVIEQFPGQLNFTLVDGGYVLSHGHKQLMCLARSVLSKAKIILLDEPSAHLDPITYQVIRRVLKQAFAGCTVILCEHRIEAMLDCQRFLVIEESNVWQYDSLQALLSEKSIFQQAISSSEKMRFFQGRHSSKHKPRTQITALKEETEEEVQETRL

Structure (SMILES): O=C(CNc1ccc2ccccc2c1)N/N=C/c1cc(Br)c(O)c(Br)c1O [GlyH-101]
- Potentiation of mCFTR [1]: potentiate

Structure (SMILES): O=C(O)c1cc([N+](=O)[O-])ccc1NCCCc1ccccc1 [NPPB]
- Potentiation of hCFTR ([2]; channel incompletely phosphorylated, activated by a low concentration of PKA): potentiate
- Potentiation of hCFTR ([2]; extremely high concentrations of NPPB): potentiate

Structure (SMILES): COc1ccc(Cl)cc1C(=O)NCCc1ccc(S(=O)(=O)NC(=O)NC2CCCCC2)cc1 [glibenclamide]
- Potentiation of mCFTR [1]: potentiate

- Inhibition of F508del human CFTR [3]: did not inhibit
- Potentiation of F508del human CFTR [3, 6]: potentiated
- Inhibition of R352A human CFTR [4]: did not inhibit
- Potentiation of R352A human CFTR [4]: potentiated
- Kd ([5]; inhibition component, read-out: Kd of inhibition of WT-hCFTR): 6.1 nM
- Kd ([5]; potentiation component, read-out: Kd of potentiation of WT-hCFTR): 0.64 nM
- Potentiation of WT-hCFTR channels [5, 6]: potentiated
Structure (SMILES): O=C(NCc1ccc(Oc2ccccc2)cc1)c1nc(-c2cc(Br)c(O)c(Br)c2)no1 [iOWH-032, 3-(3,5-dibromo-4-hydroxyphenyl)-N-(4-phenoxybenzyl)-1,2,4-oxadiazole-5-carboxamide]
